Experimental data taken from the supplement of paper PMC10307832.

Columns and labels:
Assay in all cases: relative viability (nuclei count vs DMSO), 5 days (fraction); higher = more cells survive
Lapatinib + Palbociclib = compound: CS(=O)(=O)CCNCc1ccc(-c2ccc3ncnc(Nc4ccc(OCc5cccc(F)c5)c(Cl)c4)c3c2)o1 [Lapatinib] + CC(=O)c1c(C)c2cnc(Nc3ccc(N4CCNCC4)cn3)nc2n(C2CCCC2)c1=O [Palbociclib] (partner 0.5 µM)
Method in brief: (§1)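 For relative viability, nuclei counts in treated wells were divided by those in vehicle wells. Lung cancer cell lines had been pin-tool dosed in 1536-well plates the day after seeding and cultured for 5 days, then fixed and stained in one step (final 0.05% Triton X-100, 1% formaldehyde, 1 ug/ml Hoechst) and imaged at 4×. Doses were one drug alone or a fixed anchor-drug dose plus five library-drug doses (not always all listed) in √10 steps, and values are duplicate-plate medians.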

Wnt-C59 + Bortezomib = compound: CC1=NC=CC(=C1)C2=CC=C(C=C2)CC(=O)NC3=CC=C(C=C3)C4=CN=CC=C4 [Wnt-C59] + CC(C)C[C@H](NC(=O)[C@H](Cc1ccccc1)NC(=O)c1cnccn1)B(O)O [Bortezomib] (partner 0.002 µM)
Method in brief: as §1

Lapatinib + Bortezomib = compound: CS(=O)(=O)CCNCc1ccc(-c2ccc3ncnc(Nc4ccc(OCc5cccc(F)c5)c(Cl)c4)c3c2)o1 [Lapatinib] + CC(C)C[C@H](NC(=O)[C@H](Cc1ccccc1)NC(=O)c1cnccn1)B(O)O [Bortezomib] (partner 0.002 µM)
Method in brief: as §1

Wnt-C59 + Foretinib = compound: CC1=NC=CC(=C1)C2=CC=C(C=C2)CC(=O)NC3=CC=C(C=C3)C4=CN=CC=C4 [Wnt-C59] + COc1cc2c(Oc3ccc(NC(=O)C4(C(=O)Nc5ccc(F)cc5)CC4)cc3F)ccnc2cc1OCCCN1CCOCC1 [Foretinib] (partner 0.25 µM)
Method in brief: as §1

Cell Line	relative viability (Lapatinib + Palbociclib; first compound 0.02 µM)	relative viability (Lapatinib + Palbociclib; first compound 0.06325 µM)	relative viability (Lapatinib + Palbociclib; first compound 0.2 µM)	relative viability (Lapatinib + Palbociclib; first compound 0.6325 µM)	relative viability (Lapatinib + Palbociclib; first compound 2 µM)	relative viability (Wnt-C59 + Bortezomib; first compound 0.001 µM)	relative viability (Wnt-C59 + Bortezomib; first compound 0.01 µM)	relative viability (Wnt-C59 + Bortezomib; first compound 0.03162 µM)	relative viability (Wnt-C59 + Bortezomib; first compound 0.1 µM)	relative viability (Lapatinib + Bortezomib; first compound 0.02 µM)	relative viability (Lapatinib + Bortezomib; first compound 0.06325 µM)	relative viability (Lapatinib + Bortezomib; first compound 0.2 µM)	relative viability (Lapatinib + Bortezomib; first compound 0.6325 µM)	relative viability (Lapatinib + Bortezomib; first compound 2 µM)	relative viability (Wnt-C59 + Foretinib; first compound 0.001 µM)	relative viability (Wnt-C59 + Foretinib; first compound 0.01 µM)	relative viability (Wnt-C59 + Foretinib; first compound 0.03162 µM)	relative viability (Wnt-C59 + Foretinib; first compound 0.1 µM)
NCI-H322M	0.464	0.432	0.455	0.446	0.434	1.25	1.25	1.23	1.12	1.12	1.02	1.08	1.23	1.3	0.879	0.802	0.896	0.68
NCI-H1666	0.63	0.632	0.674	0.65	0.633	0.797	0.749	0.807	0.89	0.761	0.619	0.848	0.877	0.378	0.894	0.994	0.92	0.985
HCC-366		0.334	0.339	0.356	0.323	1.06	0.98	1.16	1.07		1.03	1.06	0.992	0.935	0.896	0.975	0.922	0.89
LU99A	0.449	0.299	0.385	0.424	0.39	1.11	1.08	1.07	1.1	1.05	0.932	1.15	1.15	0.94	0.845	0.853	0.963	0.831
NCI-H460	0.116	0.168	0.149	0.149	0.118	0.934	1.06	1.14	1.1	1.02	1.02	1.15	0.984	1.11	1.03	0.966	1.02	0.94
RERF-LC-KJ	1.11	0.885	0.996	0.864	0.799	1.07	1.05	1.22	1.21	0.911	0.948	1.02	0.983	0.766	0.889	0.832	0.915	0.926
NCI-H2087	0.238	0.161	0.177	0.251	0.246	0.68	0.715	0.789	0.753	0.445	0.738	0.832	0.679	0.761	1.1	0.979	0.947	1.01
COR-L23	0.248	0.298	0.342	0.297	0.279	1.02	0.944	0.912	0.95	0.948	1.07	1.08	0.934	0.998	0.993	0.916	0.853	0.913
NCI-H2009	0.192	0.213	0.177	0.253	0.233	1.07	1.06	1.03	0.993	0.754	0.968	1.06	1.04	1.08	1.26	1.21	1.22	0.819
NCI-H838	0.225	0.193	0.201	0.238	0.178	0.905	0.655	0.739	0.754	1.08	0.461	0.843	0.829	0.674	1.04	0.961	1.08	1.03
NCI-H2126	0.38	0.349	0.346	0.348	0.319	1.12	1.09	1.11	1.11		1.05	1.04	1.03	1.03	1.2	1.11	1.05	1.25
NCI-H1975	0.285	0.492	0.518	0.575	0.311	0.297	0.372	0.461	0.37	0.467	0.358	0.407	0.405	0.32	0.819	0.891	0.942	0.906
NCI-H727	0.65		0.653	0.618	0.557	0.948	0.782	0.951	1.08	0.758	0.78	1.04	1.09	0.801	0.983	0.917	0.887	0.904
NCI-H650		0.315	0.346	0.319	0.334	0.85	1.08	0.72	0.888		0.662	0.653	0.86	0.841	0.956	1.07	1.07	0.947
A-427	0.544	0.518	0.526	0.524	0.483	0.98	1.01	1	0.979		0.953	1.05	0.901	0.976	1.02	0.977	1.29	1.24
NCI-H1993	0.687		0.471	0.588	0.433	1.14	1.12	1.21	1.2	0.88		0.871	0.889	0.627	0.81		0.987	0.706
CAL-12T	0.197	0.304	0.319	0.329	0.137	0.979		0.875	1.14		0.765	0.822	0.743	0.649	1.28	1.1	1.06	1.09

Cell Line	relative viability (Lapatinib + Palbociclib; first compound 0.02 µM)	relative viability (Lapatinib + Palbociclib; first compound 0.06325 µM)	relative viability (Lapatinib + Palbociclib; first compound 0.2 µM)	relative viability (Lapatinib + Palbociclib; first compound 0.6325 µM)	relative viability (Lapatinib + Palbociclib; first compound 2 µM)	relative viability (Wnt-C59 + Bortezomib; first compound 0.001 µM)	relative viability (Wnt-C59 + Bortezomib; first compound 0.01 µM)	relative viability (Wnt-C59 + Bortezomib; first compound 0.03162 µM)	relative viability (Wnt-C59 + Bortezomib; first compound 0.1 µM)	relative viability (Lapatinib + Bortezomib; first compound 0.02 µM)	relative viability (Lapatinib + Bortezomib; first compound 0.06325 µM)	relative viability (Lapatinib + Bortezomib; first compound 0.2 µM)	relative viability (Lapatinib + Bortezomib; first compound 0.6325 µM)	relative viability (Lapatinib + Bortezomib; first compound 2 µM)	relative viability (Wnt-C59 + Foretinib; first compound 0.001 µM)	relative viability (Wnt-C59 + Foretinib; first compound 0.01 µM)	relative viability (Wnt-C59 + Foretinib; first compound 0.03162 µM)	relative viability (Wnt-C59 + Foretinib; first compound 0.1 µM)
NCI-H441	0.222		0.176	0.236	0.185	0.364	0.236	0.593	0.682		0.628	0.45	0.379	0.657	0.977	1.05	1.01	1.04
NCI-H1437	0.281	0.297	0.305	0.322	0.294	0.576	0.433	0.551	0.395	0.523	0.46	0.421	0.394	0.39	1.31	1.28	1.29	1.26
BEN	0.455	0.469	0.472	0.432	0.468	0.821	0.88	1.03	0.878	0.665	0.783	0.637	0.781	0.608	0.877	0.615	0.786	0.747
LOU-NH91	0.542	0.525	0.508	0.494	0.57	0.492	0.583	0.465	0.53		0.469	0.522	0.499	0.544	0.941	0.764	0.988	0.92
PC-3 [JPC-3]		0.589		0.546	0.444	0.874	0.782	0.881	0.856		0.796	0.818	0.864	0.837	1.05	1.12	1.14	1.05
NCI-H1355	0.411	0.29	0.402	0.361	0.268	1.18	1.05	1.23	1.1		0.954	1.13	1.2	0.573	0.949	0.922	1.01	0.876
NCI-H520	0.221	0.2	0.231	0.291	0.238	0.596	0.611	0.509	0.57	0.699	0.388	0.59	0.54	0.416	0.792	0.696	0.867	0.689
SK-LU-1	0.36	0.394	0.455	0.44	0.392	1.15	1.23	1.28	1.45		1.04	1.05	1.2	1.2	0.791	0.796	0.87	0.792
NCI-H2228	0.395	0.606	0.744	0.739	0.54	1.07	0.746	1.07	0.855	0.841	1	1.09	1.01	0.801	0.758	0.778	0.751	0.594
EKVX		0.337	0.265	0.22	0.145	1	0.928	1.06	0.895	0.888	0.862	0.914	0.634	0.161	0.763	0.725	0.833	0.714
HCC-78		0.453	0.49	0.467	0.506	0.571	0.515	0.609	0.422	0.546		0.463	0.407	0.297	0.496	0.511	0.518	0.515
NCI-H2085	0.485	0.462	0.474	0.445	0.338	1.16	0.898	1.07	1.16	0.667	0.979	0.998	0.994	1.02	0.987	0.958	0.88	0.918
NCI-H23			0.488	0.512	0.457	1.04	1.07	0.905	0.962			1.02	1.07	0.813	0.952	0.97	0.967	1.02
NCI-H647	0.393	0.393	0.434	0.292	0.307	1.06	1.02	0.842	1.06	0.909	0.708	1.11	1.13	0.871	1.24	0.978	1.36	1.18
COR-L 105	0.418	0.387	0.352	0.407	0.338	0.579	0.772	0.685	0.662	0.503	0.512	0.637	0.524	0.378	1.13	0.722	1.03	0.911
NCI-H1651	0.547	0.456	0.483	0.478	0.514	0.928	0.985	0.97	0.913	0.994	0.93	0.819	0.859	0.963	0.985	0.734	0.858	0.758
PC-14	0.497	0.526	0.451	0.373	0.0812	0.949	0.9	0.903	0.733	0.799	0.936	0.835	0.898	0.661	1.03	0.982	0.897	0.973
